Experimental data as given in ChEMBL document CHEMBL3352480, “Antiproliferative glabretal-type triterpenoids from the root bark of Dictamnus dasycarpus” (Bioorg Med Chem Lett, 2015).

Tests used:
[1] = Cytotoxicity against OT-2 T cell receptor transgenic mouse splenocytes using propidium iodide by flow cytometry; assay type: cell-based; conditions: splenocyte
[2] = Immunosupressive activity in OVA323-339 peptide-stimulated OT-2 T cell receptor transgenic mouse splenocytes assessed as inhibition of T cell proliferation after 3 days by MTT assay; assay type: functional, cell-based; conditions: Splenocyte, 72 h
[3] = Effect on IFN-gamma secretion in OVA323-339 peptide-stimulated OT-2 T cell receptor transgenic mouse T cells after 3 days by sandwich ELISA; assay type: cell-based; conditions: splenocyte, 72 h
[4] = Effect on IL-2 secretion in OVA323-339 peptide-stimulated OT-2 T cell receptor transgenic mouse T cells after 3 days by sandwich ELISA; assay type: cell-based; conditions: splenocyte, 72 h

CC(C)CC(=O)O[C@@H]1CC[C@]2(C)[C@H]3CC[C@]45C[C@]4(CC[C@H]5[C@@H]4C[C@H]([C@H](O)C(C)(C)O)OC4O)[C@]3(C)[C@H](O)C[C@H]2C1(C)C (stereo partly specified)
Activity [1]: Non-toxic | IC50 [2]: > 20000 nM | Activity [3]: Non-toxic | Activity [4]: Non-toxic

CCCCCCCCCC(=O)O[C@@H]1CC[C@]2(C)[C@H]3CC[C@]45C[C@]4(CC[C@H]5[C@@H]4C[C@H]([C@@H]5O[C@]5(C)CO)OC4O)[C@]3(C)[C@H](O)C[C@H]2C1(C)C (stereo partly specified)
Activity [1]: Non-toxic | IC50 [2]: 1800 nM | Activity [3]: Non-toxic | Activity [4]: Non-toxic

CC(C)CC(=O)O[C@@H]1CC[C@]2(C)[C@H]3CC[C@]45C[C@]4(CC[C@H]5[C@@H]4C[C@H]([C@@H]5O[C@]5(C)CO)OC4O)[C@]3(C)[C@H](O)C[C@H]2C1(C)C (stereo partly specified)
Activity [1]: Non-toxic | IC50 [2]: 1500 nM | Activity [3]: Non-toxic | Activity [4]: Non-toxic

CCC(C)CCCCCCC(=O)O[C@@H]1CC[C@]2(C)[C@H]3CC[C@]45C[C@]4(CC[C@H]5[C@@H]4C[C@H]([C@@H]5O[C@]5(C)CO)OC4O)[C@]3(C)[C@H](O)C[C@H]2C1(C)C (stereo partly specified)
Activity [1]: Non-toxic | IC50 [2]: 1500 nM | Activity [3]: Non-toxic | Activity [4]: Non-toxic
